Laboratory results: patent publication US11786532B2, “2-pyridones and methods of use thereof” (ALIGOS THERAPEUTICS, INC., priority 2020, dated 2023)

Target: T1, human thyroid receptor beta ligand-binding domain (THR-beta) (Homo sapiens, UniProt P10828)
T1 sequence (P10828 217-461 limits assumed): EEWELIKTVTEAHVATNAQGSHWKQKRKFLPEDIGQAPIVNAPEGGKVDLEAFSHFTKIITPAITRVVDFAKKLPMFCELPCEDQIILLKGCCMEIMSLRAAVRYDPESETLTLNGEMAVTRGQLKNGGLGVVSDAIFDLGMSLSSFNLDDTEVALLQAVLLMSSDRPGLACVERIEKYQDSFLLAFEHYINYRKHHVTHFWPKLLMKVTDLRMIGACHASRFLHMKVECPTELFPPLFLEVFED
Experiment: THR Biochemical Assay (Assay 1): TR-FRET thyroid receptor beta coactivator assay
Conditions: TR-FRET SRC2-2 coactivator recruitment, GST-tagged THR-beta LBD 1 nM, 1 hr at rt; read-out: Assay 1 (EC50, THR-beta agonist activity)
Description: THR Biochemical Assay (Assay 1)
The TR-FRET thyroid receptor beta coactivator assay is to be used. The assay uses a terbium-labeled anti-GST antibody, a glutathione-S-transferase (GST) tagged human thyroid receptor, beta or alpha, ligand-binding domain (LBD), and a fluorescein labeled SRC2-2 coactivator peptide. The antibody interacts with the LBD, where the agonist will also bind, resulting in increased affinity for the SRC2-2 coactivator peptide causing energy transfer of the acceptor fluorophore and a FRET emission shift from 495 to 520 nm. The energy transfer is detected as an increase in the fluorescence emission of the fluorescein acceptor, and a decrease in the fluorescence emission of the terbium donor. The assay is to be performed in a 384-well black plate in a final volume of 20 μL. Serial dilution of various test agonists will be performed in DMSO (1% final DMSO concentration) and added to the test plate. Thyroid receptor beta LBD will usually be added to the plate at a final concentration of 1 nM, followed by the mixture of the fluorescein labeled SRC2-2 coactivator peptide, and the terbium-labeled anti-GST antibody at final concentrations of 200 nM and 2 nM respectively. The assay will often be incubated for 1 hr at rt protected from light. The TR-FRET will then be measured on a Victor multilabel reader (Perkin Elmer) using an excitation wavelength of 340 nm with emission filters of 495 nm and 520 nm. The assay will be quantified by expressing a ratio (520:495) of the intensities, and the resulting activation curves; EC50 values are to be generated using a sigmoidal dose response (variable slope) equation in GraphPad™ Prism 8.0.

EC50: < 50 nM
Compound: CC1CCc2c(Oc3c(Cl)cc(-n4nc(N)c(=O)[nH]c4=O)cc3Cl)ccc(=O)n21 (stereo not shown) [Example 36, 6-amino-2-(3,5-dichloro-4-((3-methyl-5-oxo-1,2,3,5-tetrahydroindolizin-8-yl)oxy)phenyl)-1,2,4-triazine-3,5(2H,4H)-dione]
